pIC50: −log10 of the molar value.

This assay deals with T1, VEGFR/KDR (Homo sapiens, UniProt P35968).
T1 construct: made in house; host or cells: Sf9 cells (Spodoptera frugiperda), baculovirus
T1 sequence (P35968 806-1356): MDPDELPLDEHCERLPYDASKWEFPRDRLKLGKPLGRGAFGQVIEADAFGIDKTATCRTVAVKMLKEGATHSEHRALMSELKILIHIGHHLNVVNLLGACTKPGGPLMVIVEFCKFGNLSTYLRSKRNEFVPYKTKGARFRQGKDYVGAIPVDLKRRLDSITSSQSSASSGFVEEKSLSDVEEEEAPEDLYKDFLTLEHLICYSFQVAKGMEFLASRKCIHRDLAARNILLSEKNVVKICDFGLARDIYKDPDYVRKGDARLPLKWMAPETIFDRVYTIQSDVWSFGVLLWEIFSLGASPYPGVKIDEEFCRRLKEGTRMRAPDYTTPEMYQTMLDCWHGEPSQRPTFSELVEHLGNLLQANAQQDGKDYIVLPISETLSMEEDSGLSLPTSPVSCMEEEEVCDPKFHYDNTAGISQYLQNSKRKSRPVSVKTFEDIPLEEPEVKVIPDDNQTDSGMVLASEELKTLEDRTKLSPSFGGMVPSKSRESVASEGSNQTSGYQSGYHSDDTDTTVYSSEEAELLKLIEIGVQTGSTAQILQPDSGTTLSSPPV
Nature of the assay: VEGFR/KDR kinase inhibition, DELFIA assay. Format: biochemical. Conditions: ATP 0.6 uM (2x Km), enzyme 5 nM. On the procedure:
Inhibition of VEGFR/KDR is measured in a DELFIA™ assay (Perkin Elmer). The substrate poly(Glu4, Tyr) is immobilized onto black high-binding polystyrene 96-well plates. The coated plates are washed and stored at 4° C. During the assay, the enzyme is pre-incubated with inhibitor and Mg-ATP on ice in polypropylene 96-well plates for 4 minutes, and then transferred to the coated plates. The subsequent kinase reaction takes place at 30° C. for 10-30 minutes. ATP concentrations in the assay are 0.6 uM for VEGFR/KDR (2× the Km). Enzyme concentration is 5 nM. After incubation, the kinase reactions are quenched with EDTA and the plates are washed. Phosphorylated product is detected by incubation with Europium-labeled anti-phosphotyrosine MoAb. After washing the plates, bound MoAb is detected by time-resolved fluorescence in a Gemini SpectraMax reader (Molecular Devices). Compounds are evaluated over a range of concentrations, and IC50 values (concentration of compounds giving 50% inhibition of enzymatic activity) are determined.
“1-(2-(6-(7-(2-fluoro-4-nitrophenoxy)thieno[3,2-b]pyridin-2-yl)pyridin-3-yl)ethyl)pyrrolidin-2-one [Compound 293]”: the pIC50 (commonly the IC50 on a negative log10 scale, so that one unit is a factor of ten) was above 7.30.
The compound `O=C(Nc1ccc(Oc2ccnc3cc(-c4ccc(CN5CC(O)CC5=O)cn4)sc23)c(F)c1)NC1CC1` (racemic) [Compound 111, (±)-1-cyclopropyl-3-(3-fluoro-4-(2-(5-((4-hydroxy-2-oxopyrrolidin-1-yl)methyl)pyridin-2-yl)thieno[3,2-b]pyridin-7-yloxy)phenyl)urea] gave a pIC50 above 7.30.
In the case of `CN(C[C@@H](O)[C@H](O)[C@@H](O)[C@@H](O)CO)C(=O)c1ccc(-c2cc3nccc(Oc4ccc(NC(=O)NC5CC5)cc4F)c3s2)nc1` (stereo in doubt) [Compound 244, 6-(7-(4-(3-cyclopropylureido)-2-fluorophenoxy)thieno[3,2-b]pyridin-2-yl)-N-methyl-N-((2R,3S,4S,5S)-2,3,4,5,6-pentahydroxyhexyl)nicotinamide] it was above 7.30; in that of `CN(C(=O)OC(C)(C)C)C1CCN(Cc2ccc(-c3cc4nccc(Oc5ccc(NC(=O)NC6CC6)cc5F)c4s3)nc2)CC1` [342-A], above 7.30.
In the case of `COCCN(Cc1ccc(-c2cc3nccc(Oc4ccc(NC(=O)NC5CC5)cc4F)c3s2)nc1)C(=O)N(C)C` [Compound 4, N-[3-((6-(7-(4-(3-cyclopropylureido)-2-fluorophenoxy)thieno[3,2-b]pyridin-2-yl)pyridin-3-yl)methyl)]-N-(1,1-dimethyl)-N-[3-(2-methoxyethyl)]urea] it was above 7.30.
For `COCCN(Cc1ccc(-c2cc3nccc(Oc4ccc(NC(=O)NC5CC5)cc4F)c3s2)nc1)CC(F)(F)F` [Compound 8, 1-cyclopropyl-3-(3-fluoro-4-(2-(5-(((2-methoxyethyl)(2,2,2-trifluoroethyl)amino)-methyl)pyridin-2-yl)thieno [3,2-b]pyridin-7-yloxy)phenyl)urea] the value was 7.00 to 7.30; for `CC(=O)N(CCO)Cc1ccc(-c2cc3nccc(Oc4ccc(NC(=O)NC5CC5)cc4F)c3s2)nc1` [Compound 10, N-((6-(7-(4-(3-cyclopropylureido)-2-fluorophenoxy)thieno[3,2-b]pyridin-2-yl)pyridin-3-yl)methyl)-N-(2-hydroxyethyl)acetamide], above 7.30; for `COCCNCc1ccc(-c2cc3nccc(Oc4ccc(NC(=O)CC5CC5)cc4F)c3s2)nc1` [Compound 13, 2-cyclopropyl-N-(3-fluoro-4-(2-(5-((2-methoxyethylamino)methyl)pyridin-2-yl)-thieno[3,2-b]pyridin-7-yloxy)phenyl)acetamide], 7.00 to 7.30.
With `CCOC(Nc1ccc(Oc2ccnc3cc(-c4ccc(CNCCOC)cn4)sc23)c(F)c1)C(F)(F)F` (stereo not drawn) [Compound 14, N-(1-ethoxy-2,2,2-trifluoroethyl)-3-fluoro-4-(2-(5-((2-methoxyethylamino)-methyl)pyridin-2-yl)thieno[3,2-b]pyridin-7-yloxy)aniline], the pIC50 was at most 6.60.
For `COCCNCc1ccc(-c2cc3nccc(Oc4ccc(NC(CC(=O)Nc5ccccc5)C(F)(F)F)cc4F)c3s2)nc1` (stereo not drawn) [Compound 19, 4,4,4-trifluoro-3-(3-fluoro-4-(2-(5-((2-methoxyethylamino)methyl)pyridin-2-yl)thieno[3,2-b]pyridin-7-yloxy)phenylamino)-N-phenylbutanamide], the negative logarithm of the IC50 (pIC50) is above 7.30.
In the case of `COCCNCc1ccc(-c2cc3nccc(Oc4ccc(NC(CC(=O)Nc5ccc(F)cc5)C(F)(F)F)cc4F)c3s2)nc1` (stereo not drawn) [Compound 20, 4,4,4-trifluoro-3-(3-fluoro-4-(2-(5-((2-methoxyethylamino)methy)pyridin-2-yl)thieno[3,2-b]pyridin-7-yloxy)phenylamino)-N-(4-fluorophenyl)butanamide] it was above 7.30; in that of `COCCNCc1ccc(-c2cc3nccc(Oc4ccc(NC(CC(=O)N(C)c5ccccc5)C(F)(F)F)cc4F)c3s2)nc1` (stereo not drawn) [Compound 21, 4,4,4-trifluoro-3-(3-fluoro-4-(2-(5-((2-methoxyethylamino)methyl)pyridin-2-yl)thieno[3,2-b]pyridin-7-yloxy)phenylamino)-N-methyl-N-phenylbutanamide], above 7.30; in that of `COCCNCc1ccc(-c2cc3nccc(Oc4ccc(NC(=O)NC5CC5)nc4)c3s2)nc1` [Compound 29, 1-cyclopropyl-3-(5-(2-(5-((2-methoxyethylamino)methyl)pyridin-2-yl)thieno[3,2-b]-pyridin-7-yloxy)pyridin-2-yl)urea], 6.60 to 7.00.
For `COCCN(Cc1ccc(-c2cc3nccc(Oc4ccc(NC(=O)NC5CC5)nc4)c3s2)nc1)C(=O)CO` [Compound 31, N-((6-(7-(6-(3-cyclopropylureido)pyridin-3-yloxy)thieno[3,2-b]pyridin-2-yl)pyridin-3-yl)methyl)-2-hydroxy-N-(2-methoxyethyl)acetamide] the value was 6.60 to 7.00; for `COCCN(Cc1ccc(-c2cc3nccc(Oc4ccc(NC(=O)NC5CC5)cc4F)c3s2)nc1)C(=O)COP(=O)(O)O` [Compound 34, 2-(((6-(7-(4-(3-cyclopropylureido)-2-fluorophenoxy)thieno[3,2-b]pyridin-2-yl)pyridin-3-yl)methyl)(2-methoxyethyl)amino)-2-oxoethyl dihydrogen phosphate], above 7.30.
In the case of `CCNC(=O)N(CCOC)Cc1ccc(-c2cc3nccc(Oc4ccc(NC(=O)NC5CC5)c(F)c4F)c3s2)nc1` [Compound 35, N-[3-((6-(7-(4-(3-cyclopropylureido)-2,3-difluorophenoxy)thieno[3,2-b]pyridin-2-yl)pyridin-3-yl)methyl)]-N-(1-ethyl)-N-(2-methoxyethyl)urea] it was above 7.30; in that of `CCNC(=O)N(CCOC)Cc1ccc(-c2cc3nccc(Oc4ccc(NC(=O)NC5CC5)nc4)c3s2)nc1` [Compound 37, N-[3((6-(7-(6-(3-cyclopropylureido)-pyridin-3-yloxy)thieno[3,2-b]-pyridin-2-yl)pyridin-3-yl)methyl)]-N-(1-ethyl)-N-[3-(2-methoxyethyl)]urea], 6.60 to 7.00; in that of `CCNC(=O)N(CCOC)CCc1ccc(-c2cc3nccc(Oc4ccc(NC(=O)NC5CC5)cc4F)c3s2)nc1` [Compound 38, N-[3-(2-(6-(7-(4-(3-cyclopropylureido)-2-fluorophenoxy)-thieno[3,2-b]-pyridin-2-yl)pyridin-3-yl)ethyl)]-N-(1-ethyl)-N-[3-(2-methoxyethyl)]urea], above 7.30.
In turn, `COCCN(Cc1ccc(-c2cc3nccc(Oc4ccc(NC(CC(=O)Nc5ccc(F)cc5)C(F)(F)F)cc4F)c3s2)nc1)C(C)=O` (stereo not drawn) [Compound 39] had a pIC50 above 7.30.
`COCCN(Cc1ccc(-c2cc3nccc(Oc4ccc(NC(=O)NC5CC5)nc4)c3s2)nc1)C(C)=O` [Compound 40, N-((6-(7-(6-(3-cyclopropylureido)-pyridin-3-yloxy)thieno[3,2-b]-pyridirin-2-yl)pyridin-3-yl)methyl)-N-(2-methoxyethyl)-acetamide]: the pIC50 is 7.00 to 7.30.
In the case of `COCCN(Cc1ccc(-c2cc3nccc(Oc4ccc(NC(=O)CC5CC5)cc4F)c3s2)nc1)C(C)=O` [Compound 42, 2-cyclopropyl-N-(3-fluoro-4-(2-(5-((N-(2-methoxyethyl)-acetamido)methyl)pyridin-2-yl)thieno[3,2-b]-pyridin-7-yloxy)phenyl)-acetamide] it was 7.00 to 7.30.
